Several values for one entry are separate records, joined by “and”; a condition that tells them apart may be missing. Identical values can stand only once.
Key:
NCI/ADR-RES = settings: NCI Data NSC: 800934 ref 41; cited from earlier work
[1] = tested on: Prostate cancer cell lines; settings: read-out: MG-MID GI50; Prostatic Cancer subpanel; NCI Data NSC: 800934; cited from earlier work
HS 578 T = settings: NCI Data NSC: 800934 ref 41; cited from earlier work
HT29 = settings: NCI Data NSC: 800934 ref 41; cited from earlier work
DU-145 = settings: NCI Data NSC: 800934 ref 41; cited from earlier work
SF-295 = settings: NCI Data NSC: 800934 ref 41; cited from earlier work
SN12C = settings: NCI Data NSC: 800934 ref 41; cited from earlier work
SNB-75 = settings: NCI Data NSC: 800934 ref 41; cited from earlier work
OVCAR-5 = settings: NCI Data NSC: 800934 ref 41; cited from earlier work
[2] = tested on: Ovarian cancer cell lines; settings: read-out: MG-MID GI50; Ovarian Cancer subpanel; NCI Data NSC: 800934; cited from earlier work
UACC-62 = settings: NCI Data NSC: 800934 ref 41; cited from earlier work
NCI-H322M = settings: NCI Data NSC: 800934 ref 41; cited from earlier work
Renal cancer cell lines = settings: read-out: MG-MID GI50; Renal Cancer subpanel; NCI Data NSC: 800934; cited from earlier work
CAKI-1 = settings: NCI Data NSC: 800934 ref 41; cited from earlier work
NCI-H460 = settings: NCI Data NSC: 800934 ref 41; cited from earlier work
SF-539 = settings: NCI Data NSC: 800934 ref 41; cited from earlier work
LOX IMVI = settings: NCI Data NSC: 800934 ref 41; cited from earlier work
SW-620 = settings: NCI Data NSC: 800934 ref 41; cited from earlier work
TK-10 = settings: NCI Data NSC: 800934 ref 41; cited from earlier work
KM12 = settings: NCI Data NSC: 800934 ref 41; cited from earlier work
SK-OV-3 = settings: NCI Data NSC: 800934 ref 41; cited from earlier work
Colon cancer cell lines = settings: read-out: MG-MID GI50; Colon Cancer subpanel; NCI Data NSC: 800934; cited from earlier work
NSCLC cell lines = settings: read-out: MG-MID GI50; NSCLC subpanel; NCI Data NSC: 800934; cited from earlier work
M14 = settings: NCI Data NSC: 800934 ref 41; cited from earlier work
EKVX = settings: NCI Data NSC: 800934 ref 41; cited from earlier work
HCT-15 = settings: NCI Data NSC: 800934 ref 41; cited from earlier work
SF-268 = settings: NCI Data NSC: 800934 ref 41; cited from earlier work
IGROV1 = settings: NCI Data NSC: 800934 ref 41; cited from earlier work
MDA-MB-435 = settings: NCI Data NSC: 800934 ref 41; cited from earlier work
RXF 393 = settings: NCI Data NSC: 800934 ref 41; cited from earlier work
MOLT-4 = settings: NCI Data NSC: 800934 ref 41; cited from earlier work
T-47D = settings: NCI Data NSC: 800934 ref 41; cited from earlier work
PC-3 = settings: NCI Data NSC: 800934 ref 41; cited from earlier work
BT-549 = settings: NCI Data NSC: 800934 ref 41; cited from earlier work
MCF7 = settings: NCI Data NSC: 800934 ref 41; cited from earlier work
HOP-62 = settings: NCI Data NSC: 800934 ref 41; cited from earlier work
SK-MEL-2 = settings: NCI Data NSC: 800934 ref 41; cited from earlier work
Breast cancer cell lines = settings: read-out: MG-MID GI50; Breast Cancer subpanel; NCI Data NSC: 800934; cited from earlier work
CCRF-CEM = settings: NCI Data NSC: 800934 ref 41; cited from earlier work
SR = settings: NCI Data NSC: 800934 ref 41; cited from earlier work
ACHN = settings: NCI Data NSC: 800934 ref 41; cited from earlier work
SK-MEL-28 = settings: NCI Data NSC: 800934 ref 41; cited from earlier work
UO-31 = settings: NCI Data NSC: 800934 ref 41; cited from earlier work
UACC-257 = settings: NCI Data NSC: 800934 ref 41; cited from earlier work
CNS cancer cell lines = settings: read-out: MG-MID GI50; CNS Cancer subpanel; NCI Data NSC: 800934; cited from earlier work
NCI-H522 = settings: NCI Data NSC: 800934 ref 41; cited from earlier work
U251 = settings: NCI Data NSC: 800934 ref 41; cited from earlier work
OVCAR-3 = settings: NCI Data NSC: 800934 ref 41; cited from earlier work
[3] = tested on: NCI 60-cell line panel (full panel); settings: read-out: Full panel MG-MID GI50, NCI Data NSC: 800934; cited from earlier work
A549/ATCC = settings: NCI Data NSC: 800934 ref 41; cited from earlier work
NCI-H226 = settings: NCI Data NSC: 800934 ref 41; cited from earlier work
A498 = settings: NCI Data NSC: 800934 ref 41; cited from earlier work
Leukaemia cell lines = settings: read-out: MG-MID GI50; leukaemia subpanel; NCI Data NSC: 800934; cited from earlier work
786-0 = settings: NCI Data NSC: 800934 ref 41; cited from earlier work
HL-60(TB) = settings: NCI Data NSC: 800934 ref 41; cited from earlier work
NCI-H23 = settings: NCI Data NSC: 800934 ref 41; cited from earlier work
MALME-3M = settings: NCI Data NSC: 800934 ref 41; cited from earlier work
HCC-2998 = settings: NCI Data NSC: 800934 ref 41; cited from earlier work
COLO 205 = settings: NCI Data NSC: 800934 ref 41; cited from earlier work
OVCAR-4 = settings: NCI Data NSC: 800934 ref 41; cited from earlier work
OVCAR-8 = settings: NCI Data NSC: 800934 ref 41; cited from earlier work
SNB-19 = settings: NCI Data NSC: 800934 ref 41; cited from earlier work
Melanoma cell lines = settings: read-out: MG-MID GI50; Melanoma subpanel; NCI Data NSC: 800934; cited from earlier work
Bcl-2 = assay: Gene expression by RT-qPCR in HCT-116; settings: HCT-116, 24 h, IC50 of compound; vs 0.1% DMSO; 2^-ΔΔct
Cyt-c = assay: Gene expression by RT-qPCR in HCT-116; settings: HCT-116, 24 h, IC50 of compound; vs 0.1% DMSO; 2^-ΔΔct
HCT-116 (colon cancer) [4] = assay: Cell cycle analysis by PI flow cytometry; assay type: cell-based, human; settings: HCT-116, 24 h, IC50 of compound
Bax [5] = assay: Gene expression by RT-qPCR in HCT-116; settings: HCT-116, 24 h
HCT-116 (colon cancer) [6] = assay: Apoptosis AV/PI assay by flow cytometry; assay type: cell-based, human; settings: HCT-116, 24 h, IC50 of compound
Bax [7] = assay: Protein level by ELISA assay in HCT-116; assay type: cell-based, human; settings: HCT-116, IC50 of compound, 24 h, vs 0.1% DMSO
Caspase-3 [8] = assay: Gene expression by RT-qPCR in HCT-116; settings: HCT-116, 24 h, IC50 of compound; vs 0.1% DMSO; 2^-ΔΔct
TNF-α = assay: Gene expression by RT-qPCR in HCT-116; settings: HCT-116, 24 h, IC50 of compound; vs 0.1% DMSO; 2^-ΔΔct
Caspase-3 [9] = assay: Protein level by ELISA assay in HCT-116; assay type: cell-based, human; settings: HCT-116, IC50 of compound, 24 h, vs 0.1% DMSO

SMILES: CNC(=O)c1cc(Oc2ccc(NC(=O)Nc3ccc(Cl)c(C(F)(F)F)c3)cc2)ccn1 [Sorafenib]
- GI50 (NCI/ADR-RES): 3.16 µM
- GI50 [1]: 3.5 µM
- GI50 (HS 578 T): 3.16 µM
- GI50 (HT29): 2510 nM
- GI50 (DU-145): 5.01 µM
- GI50 (SF-295): 2510 nM
- GI50 (SN12C): 3.16 µM
- GI50 (SNB-75): 1990 nM
- GI50 (OVCAR-5): 3.16 µM
- GI50 [2]: 3.27 µM
- GI50 (UACC-62): 2510 nM
- GI50 (NCI-H322M): 3.98 µM
- GI50 (Renal cancer cell lines): 3.46 µM
- GI50 (CAKI-1): 3.16 µM
- GI50 (NCI-H460): 3.16 µM
- GI50 (SF-539): 1990 nM
- GI50 (LOX IMVI): 2510 nM
- GI50 (SW-620): 3.98 µM
- GI50 (TK-10): 3.98 µM
- GI50 (KM12): 2510 nM
- GI50 (SK-OV-3): 3.16 µM
- GI50 (Colon cancer cell lines): 2680 nM
- GI50 (NSCLC cell lines): 2530 nM
- GI50 (M14): 1990 nM
- GI50 (EKVX): 3.16 µM
- GI50 (HCT-15): 2510 nM
- GI50 (SF-268): 3.98 µM
- GI50 (IGROV1): 3.16 µM
- GI50 (MDA-MB-435): 1990 nM
- GI50 (RXF 393): 3.98 µM
- GI50 (MOLT-4): 2510 nM
- GI50 (T-47D): 1990 nM
- GI50 (PC-3): 1990 nM
- GI50 (BT-549): 3.16 µM
- GI50 (MCF7): 2510 nM
- GI50 (HOP-62): 2510 nM
- GI50 (SK-MEL-2): 1250 nM
- GI50 (Breast cancer cell lines): 2760 nM
- GI50 (CCRF-CEM): 3.16 µM
- GI50 (SR): 1990 nM
- GI50 (ACHN): 3.16 µM
- GI50 (SK-MEL-28): 2510 nM
- GI50 (UO-31): 3.16 µM
- GI50 (UACC-257): 1990 nM
- GI50 (CNS cancer cell lines): 3.1 µM
- GI50 (NCI-H522): 1990 nM
- GI50 (U251): 3.16 µM
- GI50 (OVCAR-3): 3.98 µM
- GI50 [3]: 2760 nM
- GI50 (A549/ATCC): 3.16 µM
- GI50 (NCI-H226): 1250 nM
- GI50 (A498): 3.16 µM
- GI50 (Leukaemia cell lines): 1910 nM
- GI50 (786-0): 3.98 µM
- GI50 (HL-60(TB)): 630 nM
- GI50 (NCI-H23): 1990 nM
- GI50 (MALME-3M): 3.16 µM
- GI50 (HCC-2998): 3.16 µM
- GI50 (COLO 205): 2510 nM
- GI50 (OVCAR-4): 3.16 µM
- GI50 (OVCAR-8): 3.16 µM
- GI50 (SNB-19): 5.01 µM
- GI50 (Melanoma cell lines): 2160 nM

SMILES: COc1cccc2c1C(=O)c1c(O)c3c(c(O)c1C2=O)C[C@@](O)(C(=O)CO)C[C@@H]3O[C@H]1C[C@H](N)[C@H](O)[C@H](C)O1 [Doxorubicin, reference compound]
- Bcl-2 gene expression fold change (Bcl-2): 0.15 ± 0.03 fold
- Cyt-c gene expression fold change (Cyt-c): 44.32 ± 4.3 fold
- % G0-G1 (HCT-116 (colon cancer) [4]): 55.35 ± 6.3%
- % G2M (HCT-116 (colon cancer) [4]): 15.05 ± 6.7%
- % S (HCT-116 (colon cancer) [4]): 18.68 ± 2.2%
- % SubG0-G1 (HCT-116 (colon cancer) [4]): 10.75 ± 2.3%
- Bax gene expression fold change (Bax [5]; IC50 of compound, vs 0.1% DMSO, 2^-ΔΔct): 0.31 ± 0.05 fold
- Bax/Bcl-2 ratio (Bax [5]; ratio of gene expression fold changes): 2
- % Early apoptotic cells (LR) (HCT-116 (colon cancer) [6]): 0.00 ± 0.0%
- % Late apoptotic cells (UL) (HCT-116 (colon cancer) [6]): 3.86 ± 0.66%
- % Necrotic cells (UR) (HCT-116 (colon cancer) [6]): 96.12 ± 14.1%
- % Viable cells (LL) (HCT-116 (colon cancer) [6]): 0.03 ± 0.001%
- Bax protein level (Bax [7]): 1.86 fold
- Caspase-3 gene expression fold change (Caspase-3 [8]): 0.75 ± 0.09 fold
- TNF-α gene expression fold change (TNF-α): 2.33 fold and 2.33 ± 0.2 fold
- caspase-3 protein level (Caspase-3 [9]): 34.15 fold

— publication PMC11003488 (Journal of Enzyme Inhibition and Medicinal Chemistry, 2023)
